Read-outs that look alike come from different tables or passages of the source.

For assay [1], the target named is T1, α4β2 subtype of nicotinic acetylcholine receptors (Rattus norvegicus, UniProt P09483+P12390).
T1 construct: examined using rat brain membrane obtained from whole homogenized brain; from tissue; host or cells: rat whole brain membranes (Fischer-344 male rats)
Nature of the assay: Binding assay at α4β2 subtype of nicotinic acetylcholine receptors ([3H]-cytisine, rat brain membrane). From the text:
(§1) The methods for evaluating the binding capabilities of the compounds at nicotinic acetylcholine receptors are different by subtypes of receptors. The binding capabilities of the compounds at α4β2 nicotinic acetylcholine receptors are examined using rat brain membrane obtained from whole homogenized brain, and determining the inhibiting rate of the compounds against [^3H]-cytisine binding to said brain membrane. Furthermore, the binding capabilities of the compounds at α1β1γδ nicotinic acetylcholine receptors are examined using homogenized rat muscle, and determining the inhibiting rate of the compounds against [^3H]-α-bungarotoxin binding to said muscle homogenate.
Binding Assays at α4β2 Subtype of Nicotinic Acetylcholine Receptors
(1) Preparation of Rat Brain Membrane Containing α4β2 Subtype of Nicotinic Acetylcholine Receptors
Rats were housed in the breeding cage controlled of the room temperature at 23±1° C., and the humidity of 55±5% for 1 to 4 weeks. Rats (3 to 4 rats per a cage) were housed with lights on for 12 hours daily (from 7:00 to 19:00), and allowed free access to food and water.
Preparation of rat brain membrane containing α4β2 subtype of nicotinic acetylcholine receptors was performed as follow. That is, rat brains were isolated just after sacrificed by decapitation, washed with ice-cooled saline solution and then frozen at −80° C. with liquid nitrogen and stored till using. After thawing the frozen brain, the brain was homogenized in 10 volumes of ice-cooled buffer solution (50 mM of Tris-HCl, 120 mM of NaCl, 5 mM of KCl, 1 mM of MgCl2, 2 mM of CaCl2; pH 7.4; 4° C.) using homogenizer (HG30, Hitachi Kohki Ltd.) for 30 seconds, and the homogenate were centrifuged under 1,000×G for 10 minutes at 4° C. The resulting supernatant was separated and the pellet was homogenized again with half volume of aforementioned prior buffer solution and centrifuged under the same conditions. Combined supernatant was further centrifuged under 40,000×G for 20 minutes at 4° C. The pellet was suspended in buffer solution and used for binding assays at receptors.
(2) Experiments of α4β2 Subtype of Nicotinic Acetylcholine Receptors Binding
Suspensions of membrane pellets containing 400-600 μg of protein were added to test tubes containing test compounds and [^3H]-cytisine (2 nM) in a final volume of 200 μl and incubated for 75 minutes in ice-cooled bath. The samples were isolated by vacuum filtration onto Whatman GF/B filters, which were prerinsed with 0.5% polyethylenimine just prior to sample filtration, using Brandel multi manifold cell harvester. The filters were rapidly washed with buffer solution (3×1 ml). The filters were counted in 3 ml of clearsol I (Nacalai Tesque Inc.).
The analyses of the experimental results were conducted by using the Accufit Competition Program (Beckman Ltd.).

Assay [2] has as its target α1β1γδ subtype of nicotinic acetylcholine receptors (Rattus norvegicus, UniProt P18916+P25108+P25109+P25110). Nature of the assay: biochemical. In kind it is binding. To be noted: for remaining activity at 100 µM: read-out: control % of [3H]-α-Bgt binding at 100 μM of test compound; for remaining activity at 1000 µM: read-out: control % of [3H]-α-Bgt binding at 1,000 μM of test compound.
Excerpt: as §1
Binding Assays at α1β1γδ Subtype of Nicotinic Acetylcholine Receptors
The affinity of the compounds of the present invention to α1β1γδ subtype of nicotinic acetylcholine receptors was measured by the following method, which was modified method described by Garcha H. S., Thomas P., Spivak C.
(1) Preparation of Rat Skeletal Muscles Containing α1β1γδ Subtype of Nicotinic Acetylcholine Receptors
The substantially same animals described in the Biological Experiment 1 were used.
The isolation of α1β1γδ subtype of nicotinic acetylcholine receptors was performed as follow. That is, rat posterior skeletal muscles were isolated just after sacrificed by decapitation, washed with ice-cooled saline solution and then frozen at −80° C. with liquid nitrogen and stored till using. After thawing the frozen muscles, tissue was homogenized ([…]) with buffer solution [2.5 mM of sodium phosphate buffer (pH:7.2), 90 mM of NaCl, 2 mM of KCl, 1 mM of EDTA, 2 mM of benzamidine, 0.1 mM of benzethonium chloride, 0.1 mM of PMSF, 0.01% of sodium azide] in Waring blender (Waring blender 34BL97; WARING PRODUCTS DIVISION DYNAMICS CORPORATION OF AMERICA) for 60 seconds. The homogenate were centrifuged under 20,000×G for 60 minutes at 4° C. The supernatant was separated and the resulting pellet was added to the same buffer (1.5 ml/g wet weight), and homogenized under the same conditions. Triton X100 (2% w/v) was added and the mixture was stirred for 3 hours at 4° C. The centrifugation at 100,000×G for 60 minutes at 4° C. yielded the rat muscle extract as supernatant. This was stored at 4° C. for up to 4 weeks, and used for binding assays at receptors.
(2) Experiments of α1β1γδ Subtype of Nicotinic Acetylcholine Receptors Binding
Receptors binding experiments were performed as follow. That is, the extract of rat muscle containing 600-900 μg of protein was added to test tubes containing test compounds and incubated for 15 minutes at 37° C. Then, to this mixture was added 1 nM of [^3H]-α-bungarotoxin (α-Bgt) and further incubated for 2 hours. The samples were isolated by vacuum filtration onto Whatman GF/B filters, which were prerinsed with 0.5% polyethylenimine just prior to sample filtration, using Brandel multi manifold cell harvester. The filters were rapidly rinsed with washing solution (10 mM of KH2PO4, 150 mM of NaCl, pH 7.2, room temperature) (5×1 ml). The filters were counted in 3 ml of clearsol I (Nacalai Tesque Inc.). The determination of nonspecific binding was incubated in the presence of 1 μM α-Bgt. […] In the receptor binding experiments, said buffer solution was added for adjusting the final concentration of BSA to be 0.05%.
The analyses of the experimental results were conducted by the same way as described in the Biological Experiment 1.

The mark [3] stands for this setting: rat brain membrane, [3H]-cytisine 2 nM, read-out: Affinities for receptors Ki α4β2.

T1 sequence (P09483 31-630): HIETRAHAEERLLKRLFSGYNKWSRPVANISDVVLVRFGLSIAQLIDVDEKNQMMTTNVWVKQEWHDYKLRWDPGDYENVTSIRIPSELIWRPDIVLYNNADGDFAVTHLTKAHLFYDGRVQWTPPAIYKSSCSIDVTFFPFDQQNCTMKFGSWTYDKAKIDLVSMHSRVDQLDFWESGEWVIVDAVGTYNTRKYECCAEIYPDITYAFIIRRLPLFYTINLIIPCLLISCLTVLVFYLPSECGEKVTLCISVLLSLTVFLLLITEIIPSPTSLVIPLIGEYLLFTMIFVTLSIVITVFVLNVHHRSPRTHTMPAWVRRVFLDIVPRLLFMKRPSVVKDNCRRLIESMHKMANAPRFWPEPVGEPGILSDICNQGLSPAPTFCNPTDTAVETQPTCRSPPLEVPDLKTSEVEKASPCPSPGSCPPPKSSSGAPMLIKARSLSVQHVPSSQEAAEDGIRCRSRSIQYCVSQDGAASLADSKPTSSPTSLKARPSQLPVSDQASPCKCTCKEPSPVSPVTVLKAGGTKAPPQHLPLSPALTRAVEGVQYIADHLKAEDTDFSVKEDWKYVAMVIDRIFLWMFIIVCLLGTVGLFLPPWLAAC
T1 sequence (P12390 25-500): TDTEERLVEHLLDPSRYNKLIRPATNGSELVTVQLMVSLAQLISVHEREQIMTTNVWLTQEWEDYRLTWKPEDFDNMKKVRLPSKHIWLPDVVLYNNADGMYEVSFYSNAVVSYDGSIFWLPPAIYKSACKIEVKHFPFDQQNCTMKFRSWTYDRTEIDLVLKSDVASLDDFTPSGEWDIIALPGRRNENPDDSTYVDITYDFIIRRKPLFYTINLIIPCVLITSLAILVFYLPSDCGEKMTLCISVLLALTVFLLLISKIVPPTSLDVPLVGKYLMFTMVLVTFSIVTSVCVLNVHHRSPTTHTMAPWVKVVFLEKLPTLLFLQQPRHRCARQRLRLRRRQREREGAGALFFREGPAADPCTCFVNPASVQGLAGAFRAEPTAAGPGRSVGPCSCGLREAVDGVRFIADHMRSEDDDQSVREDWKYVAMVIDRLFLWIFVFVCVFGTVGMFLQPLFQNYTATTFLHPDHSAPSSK
Chain of α1β1γδ subtype of nicotinic acetylcholine receptors (P25109 24-501): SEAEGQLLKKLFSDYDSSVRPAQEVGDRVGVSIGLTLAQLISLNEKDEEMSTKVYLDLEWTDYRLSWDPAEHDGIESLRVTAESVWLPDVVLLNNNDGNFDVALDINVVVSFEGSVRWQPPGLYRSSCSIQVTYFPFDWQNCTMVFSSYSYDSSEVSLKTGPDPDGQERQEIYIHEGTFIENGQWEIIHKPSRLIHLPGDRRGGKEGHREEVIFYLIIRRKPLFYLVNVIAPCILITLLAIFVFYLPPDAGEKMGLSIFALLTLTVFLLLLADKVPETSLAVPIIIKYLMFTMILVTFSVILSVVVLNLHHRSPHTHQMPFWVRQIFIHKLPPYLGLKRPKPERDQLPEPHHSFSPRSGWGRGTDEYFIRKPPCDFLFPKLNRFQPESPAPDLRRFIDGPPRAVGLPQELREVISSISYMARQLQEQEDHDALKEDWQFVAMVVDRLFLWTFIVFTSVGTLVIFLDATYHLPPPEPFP
Chain of α1β1γδ subtype of nicotinic acetylcholine receptors (P25110 22-517): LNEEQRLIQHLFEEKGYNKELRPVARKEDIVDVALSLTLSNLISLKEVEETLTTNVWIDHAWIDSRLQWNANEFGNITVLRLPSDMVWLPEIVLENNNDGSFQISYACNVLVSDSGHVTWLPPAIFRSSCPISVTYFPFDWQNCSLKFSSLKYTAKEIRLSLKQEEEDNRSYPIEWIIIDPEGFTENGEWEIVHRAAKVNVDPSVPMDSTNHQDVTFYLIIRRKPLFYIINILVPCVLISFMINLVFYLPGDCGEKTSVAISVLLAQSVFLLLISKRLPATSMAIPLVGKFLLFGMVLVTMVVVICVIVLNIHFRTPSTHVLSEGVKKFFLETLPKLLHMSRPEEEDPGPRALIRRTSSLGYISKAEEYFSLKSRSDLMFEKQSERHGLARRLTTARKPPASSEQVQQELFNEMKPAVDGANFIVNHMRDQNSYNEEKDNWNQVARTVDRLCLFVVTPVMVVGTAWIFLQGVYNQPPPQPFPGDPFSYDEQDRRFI
Chain of α1β1γδ subtype of nicotinic acetylcholine receptors (P25108 21-457): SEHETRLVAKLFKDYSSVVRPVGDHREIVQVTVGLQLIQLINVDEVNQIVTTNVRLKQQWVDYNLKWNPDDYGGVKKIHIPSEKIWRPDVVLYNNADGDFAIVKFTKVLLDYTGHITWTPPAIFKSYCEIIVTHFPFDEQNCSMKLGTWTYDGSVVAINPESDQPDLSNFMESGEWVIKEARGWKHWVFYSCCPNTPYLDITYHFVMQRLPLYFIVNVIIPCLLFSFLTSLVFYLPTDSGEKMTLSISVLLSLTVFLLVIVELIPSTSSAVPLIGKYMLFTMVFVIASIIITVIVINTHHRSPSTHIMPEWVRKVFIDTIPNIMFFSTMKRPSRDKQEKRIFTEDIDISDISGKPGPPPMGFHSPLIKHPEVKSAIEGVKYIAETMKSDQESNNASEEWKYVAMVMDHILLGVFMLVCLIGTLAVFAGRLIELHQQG

The term Ki denotes a dissociation constant, usually derived from enzyme kinetics or from competition with a known ligand. On to `CN1CCCN=C1c1ccc(Cl)nc1` [Compound 4, 2-(6-chloro-3-pyridyl)-1-methyl-1,4,5,6-tetrahydropyrimidine], for which the Ki in assay [1] came to 0.067 µM. For the same compound, in assay [2], the remaining activity at 100 µM was found to be 46% and the remaining activity at 1000 µM was determined as 16%.

In turn, `Clc1ccc(CC2=NCCN2)cn1` [Compound 7, 2-(6-chloro-3-pyridyl)methyl-2-imidazoline] registered a Ki in assay [1] of 0.086 µM. Further, in assay [2], the remaining activity at 100 µM was determined as 80% and the remaining activity at 1000 µM was determined as 51%.

Turning to `Clc1ccc(CC2=NCCCN2)cn1` [Compound 8, 2-(6-chloro-3-pyridyl)methyl-1,4,5,6-tetrahydropyrimidine], the Ki was found to be 0.029 µM in assay [1] and 395 µM in assay [2].

With `CN1CCN=C1Cc1ccc(Cl)nc1` [Compound 9, 2-(6-chloro-3-pyridyl)methyl-1-methyl-2-imidazoline], the affinity in assay [1] corresponds to a Ki of 0.0077 µM. In addition, in assay [2], the remaining activity at 100 µM amounted to 43% and the remaining activity at 1000 µM is 16%.

In assay [1], `CN1CCCN=C1Cc1ccc(Cl)nc1` [Compound 10, 2-(6-chloro-3-pyridyl)methyl-1-methyl-1,4,5,6-tetrahydropyrimidine] displayed an inhibition constant (Ki) of 0.001 µM. In assay [2], the remaining activity at 100 µM was 40% and the remaining activity at 1000 µM came to 17%.

With `CC1=NCCN1Cc1ccc(Cl)nc1` [Compound 11, 1-(6-chloro-3-pyridyl)methyl-2-methyl-2-imidazoline], the Ki in assay [1] stood at 0.115 µM. In addition, in assay [2], the remaining activity at 100 µM worked out at 74% and the remaining activity at 1000 µM came to 53%.

In assay [1], `CC1(C)CN(Cc2ccc(Cl)nc2)C=N1` [Compound 12, 1-(6-chloro-3-pyridyl)methyl-4,4-dimethyl-2-imidazoline] had a Ki of 0.268 µM. Further, in assay [2], the remaining activity at 100 µM was determined as 79% and the remaining activity at 1000 µM was 42%.

Take `C1CN=C(CC2CCOC2)NC1` (stereo not drawn) [Compound 15, 2-(tetrahydrofuran-3-yl)methyl-1,4,5,6-tetrahydropyrimidine]: the inhibitory constant (Ki) in assay [1] (setting [3]) came to 0.95 µM.

`Brc1cncc(CC2=NCCCN2)c1` [Compound 16, 2-(5-bromo-3-pyridyl)methyl-1,4,5,6-tetrahydropyrimidine] gave a Ki in assay [1] of 0.392 µM. Further, in assay [2], the remaining activity at 100 µM came to 63% and the remaining activity at 1000 µM was determined as 30%.

Regarding `c1cncc(CC2=NCCCN2)c1` [Compound 18, 2-(3-pyridyl)methyl-1,4,5,6-tetrahydropyrimidine], the inhibitory constant (Ki) in assay [1] amounted to 0.086 µM. Moreover, in assay [2], the remaining activity at 100 µM was determined as 62% and the remaining activity at 1000 µM turned out to be 18%.

For `c1cncc(CC2=NCCN2)c1` [Compound 19, 2-(3-pyridyl)methyl-2-imidazoline], in assay [2], the remaining activity at 100 µM turned out to be 69% and the remaining activity at 1000 µM turned out to be 29%.

In the case of `c1ccc2ncc(C3=NCCCN3)cc2c1` [Compound 25, 2-(3-quinolyl)-1,4,5,6-tetrahydropyrimidine], the Ki in assay [1] (setting [3]) stood at 0.338 µM. In assay [2], the remaining activity at 100 µM is 41% and the remaining activity at 1000 µM came to 7%.

As for `CC1=NCC(c2cccnc2)N1` (stereo not drawn) [Compound 32, 2-methyl-5-(3-pyridyl)-2-imidazoline], the inhibitory constant (Ki) in assay [1] (setting [3]) was found to be 0.58 µM. For the same compound, in assay [2], the remaining activity at 100 µM worked out at 69% and the remaining activity at 1000 µM is 35%.

Regarding `C1=NCC(c2cccnc2)N1` (stereo not drawn) [Compound 33, 5-(3-pyridyl)-2-imidazoline], the affinity in assay [1] corresponds to a Ki of 0.365 µM.

The compound `Clc1cc(CC2=NCCCN2)cnc1Cl` [Compound 36, 2-(5,6-dichloro-3-pyridyl)methyl-1,4,5,6-tetrahydropyrimidine] gave a Ki in assay [1] of 0.124 µM. Also, in assay [2], the remaining activity at 100 µM was 81% and the remaining activity at 1000 µM is 34%.

As for `Cc1ccc(CC2=NCCCN2)cn1` [Compound 43, 2-(6-methyl-3-pyridyl)methyl-1,4,5,6-tetrahydropyrimidine], the Ki in assay [1] stood at 0.167 µM. In assay [2], the remaining activity at 100 µM was found to be 71% and the remaining activity at 1000 µM was 28%.

Regarding `Fc1ccc(CC2=NCCCN2)cn1` [Compound 48, 2-(6-fluoro-3-pyridyl)methyl-1,4,5,6-tetrahydropyrimidine], the Ki came out at 0.082 µM in assay [1] and 257 µM in assay [2].

For `Clc1cc(CC2=NCCN2)cnc1Cl` [Compound 49, 2-(5,6-dichloro-3-pyridyl)methyl-2-imidazoline], the inhibition constant Ki was found to be 0.211 µM in assay [1] (setting [3]) and 773 µM in assay [2].

Regarding `Clc1cc(CN2C=NCCC2)cnc1Cl` [Compound 52, 1-(5,6-dichloro-3-pyridyl)methyl-1,4,5,6-tetrahydropyrimidine], the Ki in assay [1] was determined as 0.0012 µM; in assay [2], 23 µM.

For the compound `CN1CCN=C1Cc1cnc(Cl)c(Cl)c1` [Compound 53, 2-(5,6-dichloro-3-pyridyl)methyl-1-methyl-2-imidazoline], the Ki in assay [1] came out at 0.01 µM; in assay [2], 83 µM.

As for `CC1CCNC(Cc2ccc(Cl)nc2)=N1` (stereo not drawn) [Compound 54, 2-(6-chloro-3-pyridyl)methyl-4-methyl-1,4,5,6-tetrahydropyrimidine], the Ki in assay [1] stood at 0.108 µM; in assay [2], 1740 µM.

Turning to `Clc1ncc(CC2=NCCCN2)s1` [Compound 64, 2-(2-chloro-5-thiazolyl)methyl-1,4,5,6-tetrahydropyrimidine], the figures for the Ki in assay [1] and in assay [2] were 0.0081 µM and 23 µM, respectively.

Turning to `Clc1ncc(CC2=NCCN2)s1` [Compound 65, 2-(2-chloro-5-thiazolyl)methyl-2-imidazoline], the values for the Ki in assay [1] and in assay [2] were 0.053 µM and 524 µM, respectively.

Take `c1ncc(CC2=NCCCN2)cn1` [Compound 66, 2-(5-pyrimidyl)methyl-1,4,5,6-tetrahydropyrimidine]: the results for the inhibitory constant (Ki) in assay [1] and in assay [2] were 0.09 µM and 841 µM, respectively.

Turning to `Cc1cncc(CC2=NCCCN2)c1` [Compound 68, 2-(5-methyl-3-pyridyl)methyl-1,4,5,6-tetrahydropyrimidine], the Ki worked out at 0.203 µM in assay [1] and 231 µM in assay [2].

Source of the values: US20030100769A1, “Cyclic amidine compounds” (priority 2000, published 2003).
